For assay [1], the target named is T1, hT1R2/hT1R3 (Homo sapiens, UniProt Q7RTX0+Q8TE23).
T1 construct: expressed in transfected cells
T1 sequence (Q8TE23 20-839): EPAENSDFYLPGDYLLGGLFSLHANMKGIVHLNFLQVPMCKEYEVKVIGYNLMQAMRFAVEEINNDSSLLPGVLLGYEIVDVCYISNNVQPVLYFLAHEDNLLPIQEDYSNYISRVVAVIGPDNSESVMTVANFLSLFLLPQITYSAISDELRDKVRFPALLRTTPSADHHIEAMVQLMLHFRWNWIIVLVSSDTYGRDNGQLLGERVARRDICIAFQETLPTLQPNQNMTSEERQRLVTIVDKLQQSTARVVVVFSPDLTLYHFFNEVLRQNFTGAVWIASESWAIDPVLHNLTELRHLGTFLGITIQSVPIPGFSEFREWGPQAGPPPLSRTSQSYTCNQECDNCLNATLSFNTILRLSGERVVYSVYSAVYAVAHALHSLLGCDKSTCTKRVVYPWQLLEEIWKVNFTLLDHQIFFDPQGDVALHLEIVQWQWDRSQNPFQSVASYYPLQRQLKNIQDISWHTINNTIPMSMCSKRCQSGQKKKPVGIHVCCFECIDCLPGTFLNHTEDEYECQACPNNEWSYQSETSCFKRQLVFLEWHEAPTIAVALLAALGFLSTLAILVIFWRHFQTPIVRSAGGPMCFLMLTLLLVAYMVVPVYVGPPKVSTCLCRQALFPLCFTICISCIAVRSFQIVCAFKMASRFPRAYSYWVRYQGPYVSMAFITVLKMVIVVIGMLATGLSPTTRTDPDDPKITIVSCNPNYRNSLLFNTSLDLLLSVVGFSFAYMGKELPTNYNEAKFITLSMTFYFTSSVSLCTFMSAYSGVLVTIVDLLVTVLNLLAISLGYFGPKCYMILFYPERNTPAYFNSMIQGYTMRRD
T1 sequence (Q7RTX0 21-852): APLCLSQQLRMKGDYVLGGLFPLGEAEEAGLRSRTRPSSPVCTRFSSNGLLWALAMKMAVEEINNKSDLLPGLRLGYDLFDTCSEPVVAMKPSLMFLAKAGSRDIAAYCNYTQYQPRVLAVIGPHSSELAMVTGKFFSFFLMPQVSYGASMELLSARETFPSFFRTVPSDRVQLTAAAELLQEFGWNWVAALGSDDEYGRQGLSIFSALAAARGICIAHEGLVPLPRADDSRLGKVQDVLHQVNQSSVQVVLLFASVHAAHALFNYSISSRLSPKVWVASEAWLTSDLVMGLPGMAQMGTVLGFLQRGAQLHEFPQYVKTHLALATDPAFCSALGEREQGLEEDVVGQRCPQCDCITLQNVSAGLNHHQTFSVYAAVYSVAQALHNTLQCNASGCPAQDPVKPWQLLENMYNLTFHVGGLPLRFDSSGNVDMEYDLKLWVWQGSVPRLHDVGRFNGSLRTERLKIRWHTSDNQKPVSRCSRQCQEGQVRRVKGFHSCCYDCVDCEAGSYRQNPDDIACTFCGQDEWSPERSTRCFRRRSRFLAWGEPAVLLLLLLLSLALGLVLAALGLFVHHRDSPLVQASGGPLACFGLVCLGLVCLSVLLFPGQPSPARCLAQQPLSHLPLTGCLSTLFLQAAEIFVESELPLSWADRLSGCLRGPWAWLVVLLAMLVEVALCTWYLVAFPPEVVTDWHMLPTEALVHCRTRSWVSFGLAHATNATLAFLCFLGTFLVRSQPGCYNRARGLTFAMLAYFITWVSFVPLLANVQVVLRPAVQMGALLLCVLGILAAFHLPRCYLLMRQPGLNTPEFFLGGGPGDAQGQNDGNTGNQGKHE
Briefly: Ca2+ mobilization dose-response assay, stable cells expressing hT1R2/hT1R3 with G16gust44. The assay is classed as cell-based. Conditions: for sensitivity in high (141.4 mM) Cl- buffer vs 10 mM Cl- buffer: 10 mM vs 141.4 mM Cl- buffer.
Procedure: (§1) The buffers with lower Cl^− were prepared by progressively replacing NaCl, KCl, CaCl2 and MgCl2 in the buffer with gluconate equivalents[20]. The pH was adjusted to 7.4 with NaOH. Ligands were diluted with the assay buffers at the desired concentrations.
Measurements of the responses of the cells by cell-based assay based on the intracellular Ca^2+ mobilization were carried out as described previously with some modifications[20],[34],[46],[47]. […] The cells were seeded in 96-well plates (clear-bottomed CellBIND surface plate, Corning, Glendale, AZ, USA) coated with ε-poly-L-lysine (Cosmo Bio, Tokyo, Japan) at approximately 70,000 cells per well. After 20 h, the medium was removed and replaced with high Cl^− buffer. After 3 h 30 min incubation at 27 °C, cells were loaded with 5 µM calcium-indicator dye Fluo-8 AM (AAT Bioquest, Sunnyvale, CA, USA) diluted in high Cl^− buffer. After incubation for 30 min at 27 °C, the cells were washed with buffers containing appropriate concentrations of Cl^−. The cellular assay was initiated after 3–5 min of resting and was completed within 5 min. The measurements were made using FlexStation 3 (Molecular Devices, Sunnyvale, CA, USA) at 27 °C. Fluorescence changes (i.e., excitation at 485 nm and emission at 525 nm with a cutoff at 515 nm) were monitored at 2 s intervals. A 100-µL aliquot of assay buffer supplemented with 2 × ligands was added at 20 s, and scanning was continued for an additional 40 s. The response of each well was determined as ∆RFU (delta relative fluorescent units), which was calculated as (maximum fluorescent value)—(minimum fluorescent value). […] Such normalized data from more than three independent experiments are reported as the mean ± standard error of the mean (SEM). Dose‒response fitting curves were calculated by Prism 9 (GraphPad Software, San Diego, CA) using nonlinear regression (log(agonist) vs. response—variable slope), based on the integrated data from the several independent experiments.

The target in assay [2] is T2, mfT1R2a/mfT1R3 (Oryzias latipes, UniProt Q2MHK2+Q2MHK5).
T2 sequence (Q2MHK5 20-819): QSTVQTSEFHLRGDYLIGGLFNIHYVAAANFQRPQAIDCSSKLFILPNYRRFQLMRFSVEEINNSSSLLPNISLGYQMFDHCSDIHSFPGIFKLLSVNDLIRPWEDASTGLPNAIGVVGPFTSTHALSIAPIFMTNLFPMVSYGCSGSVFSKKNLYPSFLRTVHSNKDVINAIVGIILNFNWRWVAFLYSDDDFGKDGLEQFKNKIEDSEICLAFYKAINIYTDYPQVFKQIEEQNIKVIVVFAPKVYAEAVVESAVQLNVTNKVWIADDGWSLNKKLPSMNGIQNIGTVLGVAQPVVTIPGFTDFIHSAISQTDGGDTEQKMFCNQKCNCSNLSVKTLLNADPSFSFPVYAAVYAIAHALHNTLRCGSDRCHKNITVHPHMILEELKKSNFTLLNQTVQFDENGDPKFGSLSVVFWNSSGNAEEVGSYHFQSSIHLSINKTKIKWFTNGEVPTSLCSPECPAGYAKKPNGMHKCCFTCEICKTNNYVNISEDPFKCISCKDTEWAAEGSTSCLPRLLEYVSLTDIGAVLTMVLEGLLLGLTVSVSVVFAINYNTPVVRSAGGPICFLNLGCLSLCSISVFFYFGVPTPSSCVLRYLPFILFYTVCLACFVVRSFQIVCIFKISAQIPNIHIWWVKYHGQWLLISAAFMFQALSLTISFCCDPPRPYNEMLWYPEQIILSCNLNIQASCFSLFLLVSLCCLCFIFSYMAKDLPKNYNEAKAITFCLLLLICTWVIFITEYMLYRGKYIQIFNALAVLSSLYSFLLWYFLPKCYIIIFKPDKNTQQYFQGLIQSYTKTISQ
T2 sequence (Q2MHK2 20-853): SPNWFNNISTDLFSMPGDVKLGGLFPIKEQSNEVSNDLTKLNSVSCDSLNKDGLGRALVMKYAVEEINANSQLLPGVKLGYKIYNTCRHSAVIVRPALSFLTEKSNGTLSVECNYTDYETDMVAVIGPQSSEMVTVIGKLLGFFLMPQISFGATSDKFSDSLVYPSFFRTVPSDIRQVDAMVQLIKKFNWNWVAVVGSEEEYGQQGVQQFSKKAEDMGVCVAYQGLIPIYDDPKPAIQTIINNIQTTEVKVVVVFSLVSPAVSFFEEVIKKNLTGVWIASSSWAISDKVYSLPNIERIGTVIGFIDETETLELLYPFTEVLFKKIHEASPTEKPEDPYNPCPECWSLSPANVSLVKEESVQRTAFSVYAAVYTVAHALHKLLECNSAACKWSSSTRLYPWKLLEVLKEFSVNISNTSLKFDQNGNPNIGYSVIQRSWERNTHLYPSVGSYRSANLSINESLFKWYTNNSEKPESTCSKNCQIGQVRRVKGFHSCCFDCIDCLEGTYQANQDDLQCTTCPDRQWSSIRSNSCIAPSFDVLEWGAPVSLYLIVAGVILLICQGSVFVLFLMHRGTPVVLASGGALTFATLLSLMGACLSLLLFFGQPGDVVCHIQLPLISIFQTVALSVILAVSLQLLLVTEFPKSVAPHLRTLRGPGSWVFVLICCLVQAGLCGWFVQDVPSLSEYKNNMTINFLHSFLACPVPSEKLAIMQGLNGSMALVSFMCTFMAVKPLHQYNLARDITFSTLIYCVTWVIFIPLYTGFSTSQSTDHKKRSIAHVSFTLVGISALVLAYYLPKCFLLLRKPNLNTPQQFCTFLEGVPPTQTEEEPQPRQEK
Briefly: Effect of anions, cations and osmotic pressure on cellular responses, cells in 10 mM Cl- buffer, mfT1R2a/mfT1R3. It is filed as cell-based, medaka fish. On the procedure:
Cells were seeded in 96-well plates coated with ε-poly-L-lysine at approximately 70,000 cells per well. […] Fluorescence changes were monitored at 2 s intervals, as described above. […] Three independent experiments were conducted for each receptor, and representative results are shown as the mean ± SEM (n = 3 replicates). Statistical tests were conducted using KyPlot version 6.0 (KyensLab Inc., Tokyo, Japan). Statistical significance was set at p < 0.05.

Assay [3] addresses T3, hT1R2/hT1R3 T102E (Homo sapiens, UniProt Q7RTX0+Q8TE23, T102E).
T3 sequence (Q8TE23 20-839): T1 sequence (Q8TE23 20-839)
T3 sequence (Q7RTX0 21-852 T102E): T1 sequence (Q7RTX0 21-852) with T82E
Briefly: Ca2+ mobilization dose-response assay, site X mutant hT1R2/hT1R3 T102E. Conditions: EC50, [Cl-]o=10 mM; unit inferred.
Procedure: as §1
Measurements of the responses of the cells by cell-based assay based on the intracellular Ca^2+ mobilization were carried out as described previously with some modifications[20],[34],[46],[47]. Cell lines stably expressing T1R2, T1R3 and chimeric G-protein α-subunit, G16gust44[48], were constructed using the Flp-In pcDNA5/FRT complete system (Thermo Fisher Scientific, Waltham, MA, USA) described in our previous studies[34],[46]. […] Fluorescence changes (i.e., excitation at 485 nm and emission at 525 nm with a cutoff at 515 nm) were monitored at 2 s intervals. […] The response of each well was determined as ∆RFU (delta relative fluorescent units), which was calculated as (maximum fluorescent value)—(minimum fluorescent value). […] Dose‒response fitting curves were calculated by Prism 9 (GraphPad Software, San Diego, CA) using nonlinear regression (log(agonist) vs. response—variable slope), based on the integrated data from the several independent experiments.

Positions count from the first letter of the chain named. pEC50: −log10 of the molar value.

For `N[C@H](Cc1c[nH]c2ccccc12)C(=O)O` [D-tryptophan], the “sensitivity in high (141.4 mM) Cl- buffer vs 10 mM Cl- buffer” value in assay [1] was “comparable”.
Consider `[Br-].[Na+]` [NaBr], for which the “additional anion concentration needed to significantly increase the response intensity to L-Gln” value in assay [2] (added to 10 mM Cl- buffer with 200 µM L-Gln) came out at 5 mM. The “response to fixed concentration of L-Gln on coapplication” value in assay [2] (coapplied with 200 µM L-Gln, cells in 10 mM Cl- buffer, final [Cl-]o up to 60 mM) is recorded as “enhanced”. Also, the “cellular response to the salt alone” value in assay [2] (without agonist, cells in 10 mM Cl- buffer) is on record as “did not elicit”.
As to `OC[C@H]1O[C@H](O[C@]2(CCl)O[C@H](CCl)[C@@H](O)[C@@H]2O)[C@H](O)[C@@H](O)[C@H]1Cl` [sucralose, Sucralose], in assay [1], the “sensitivity in high (141.4 mM) Cl- buffer vs 10 mM Cl- buffer” value was “comparable”. For the same compound, the pEC50 in assay [1] ([Cl-]o=10 mM, unit inferred) is 4.03; in assay [3] it was 3.77.

The record behind these values is paper PMC10539361, “Allosteric modulation of the fish taste receptor type 1 (T1R) family by the extracellular chloride ion” (Scientific Reports, 2023).
